Measurements from article PMC6268061, “Investigation of the Biological Properties of (Hetero)Aromatic Thiosemicarbazones” (Molecules, 2012).
Converted amounts (≈) assume the structure as drawn. “And” between values parts separate entries of the source, which are not always exact repeats. Identical values can stand only once. Like-named read-outs stand apart in the source and are kept apart here.

Legend:
[1] = Lipophilicity determination using RP-HPLC (capacity factor, log k); type: physicochemical; details: C18, MeOH 55%/H2O 45%
From the text: Reversed phase high performance liquid chromatography (RP-HPLC) methods have become popular and are widely used for lipophilicity measurements. The general procedure is the measurement of the directly accessible retention time under isocratic conditions using varying amounts of methanol as an organic modifier in the mobile phase using RP columns and calculating the logarithm of the capacity factors (log k). Log k is the logarithm of the capacity factors in chromatographic approaches that is related to the partitioning of a compound between a mobile and a (pseudo-)stationary phase. Log k is used as the lipophilicity index converted to log P scale.
A Waters Alliance 2695 XE HPLC separation module and a Waters Photodiode Array Detector 2996 (Waters Corp., Milford, MA, USA) were used. A Symmetry® C18 5 μm, 4.6 × 250 mm, Part No. WAT054275 (Waters Corp.) chromatographic column was used. The HPLC separation process was monitored using Empower™ 2 Chromatography Data Software, Waters 2009 (Waters Corp.). A mixture of MeOH p.a. (55%) and H2O-HPLC-Mili-Q Grade (45%) was used as a mobile phase. The total flow of the column was 0.9 mL/min, injection volume 30 μL, column temperature 30 °C and sample temperature 10 °C. A detection wavelength of 210 nm was chosen. A KI methanolic solution was used for the determination of dead time (tD). Retention times (tR) were measured in minutes. The capacity factors k were calculated using the Empower™ 2 Chromatography Data Software according to the formula k = (tR − tD)/tD, where tR is the retention time of the solute, whereas tD denotes the dead time obtained using an unretained analyte. Log k, calculated from the capacity factor k, is used as the lipophilicity index converted to log P scale.

[2] = system: photosynthetic electron transport (PET) in spinach chloroplasts; assay: Inhibition of photosynthetic electron transport (PET) in spinach chloroplasts; type: biochemical, Spinacia oleracea L.; details: DCPIP photoreduction
Method: Chloroplasts were prepared from spinach (Spinacia oleracea L.) according to Masarovicova and Kralova. The inhibition of the photosynthetic electron transport (PET) in spinach chloroplasts was determined spectrophotometrically (Genesys 6, Thermo Fisher Scientific, Waltham, MA, USA) using an artificial electron acceptor 2,6-dichlorophenol-indophenol (DCIPP) according to Kralova et al. and the rate of photosynthetic electron transport was monitored as a photoreduction of DCPIP. The measurements were carried out in a phosphate buffer (0.02 mol/L, pH 7.2) containing sucrose (0.4 mol/L), MgCl2 (0.005 mol/L) and NaCl (0.015 mol/L). The chlorophyll content was 30 mg/L in these experiments and the samples were irradiated (~100 W/m^2 with 10 cm distance) with a halogen lamp (250 W) using a 4 cm water filter to prevent warming of the samples (suspension temperature 22 °C). The compounds studied were dissolved in DMSO due to their limited water solubility. […] The inhibitory efficiency of the compounds studied was expressed by IC50 values, i.e., by the molar concentration of the compounds that caused a 50% decrease in the oxygen evolution rate relative to the untreated control.

[3] = system: HCT-116 human colon cancer cells (p53 wild type); assay: In vitro antiproliferative activity, MTS assay; type: cell-based; details: HCT-116, 72 h, read-out: HCT-116 IC50
Method: The antiproliferative activity of all of the compounds was examined against the human colon cancer (HCT-116) cell line using an MTS assay. The HCT-116 p53 wild type cell line was chosen on the basis of our former experience and some results on the activity of quinoline-based thiosemicarbazones that was published recently. Namely, compounds 4a–l have been tested previously for their wide-ranging anticancer activity. The antiproliferative activity of the compounds evaluated was assessed using Doxorubicin as a reference compound. In general, quinoline-based thiosemicarbazones 4 seem to have a much better anticancer activity than halogenophenyl compounds 3. Thus, the quinoline nucleus can be defined as being crucial for antiproliferative activity. A more detailed analysis of the anticancer activity of quinoline-based thiosemicarbazone is available. […] Nevertheless, some more general conclusions can be drawn from the gathered data. […] The free amino group or substitution pattern with small substituents such as methyl or ethyl are favorable for activity. According to our former results the chelating ability of the compounds may be one of the prerequisites of the antiproliferative activity. In this study we have measured the UV-VIS spectra of the compounds in presence of various concentration of Fe^3+ cations to observe its chelating potency (supplementary material). […] However as 4j give also two points at 330 and 385 nm, iron chelating ability should be regarded only as one of the factor influencing the biological activity.
The human colon cancer cell line HCT116 with the wild type p53 gene (p53^+/+) were obtained from Maria Sklodowska-Curie Memorial Cancer Center in Gliwice, Poland. Briefly, the cells were seeded in 96-well plates (3 × 10^3 cells/well) in cellular proliferation assays 24 h before the addition of the chelators. The assay was performed following a 72 h incubation with varying concentrations of the agents. Each compound was tested in triplicate in a single experiment with each experiment being repeated 3 times. After 72 h incubation with the compounds being investigated, 20 µL of MTS solution was added to each well (100 µL) and incubated for 1 h at 37 °C. The optical densities of the samples were analyzed at 490 nm. Results were expressed as a percentage of the control. The inhibitory concentration (IC50) was defined as the compound concentration necessary to reduce the absorbance to 50% of the untreated control.

Candida krusei ATCC 6258 = assay: In vitro antifungal susceptibility, broth microdilution; type: cell-based; details: Pichia kudriavzevii, read-out: MIC (IC80) CK
Candida tropicalis 156 = assay: as above; type: cell-based; details: read-out: MIC (IC80) CT
[4] = system: Candida albicans ATCC 44859; assay: as above; type: cell-based; details: read-out: MIC (IC80) CA
[5] = system: Trichosporon beigelii 1188; assay: as above; type: cell-based; details: read-out: MIC (IC80) TB
From the text: The broth microdilution test was used for the assessment of the in vitro antifungal activity of the synthesized compounds against Candida albicans ATCC 44859 (CA), Candida tropicalis 156 (CT), Candida krusei ATCC 6258 (CK), Candida glabrata 20/I (CG), Trichosporon beigelii 1188 (TB), Aspergillus fumigatus 231 (AF), Absidia corymbifera 272 (AC), and Trichophyton mentagrophytes 445 (TM). Fluconazole (FLU) was used as the standard since it is a clinically used antimycotic drug. The procedure was performed using a twofold dilution of the compounds in RPMI 1640 (Sevapharma a.s., Prague, Czech Republic) buffered to pH 7.0 with […] of 3-morpholino-propane-1-sulfonic acid (MOPS, Sigma, Prague, Czech Republic). The final concentrations of the compounds ranged from 500 to 0.975 μmol/L. Drug-free controls were included. The determination of minimum inhibitory concentration (MIC) was performed according to the Clinical and Laboratory Standards Institute (CLSI, formerly NCCLS) reference protocol M27-A2 for yeasts (IC80 value) and M38-A for moulds (IC50 value). IC80 and IC50 were defined as an 80% resp. 50% or greater reduction in growth in comparison with the control. The values of MICs were determined after 24 and 48 h of static incubation at 35 °C. The final MICs for T. mentagrophytes, were determined after 72 and 120 h of incubation.

[6] = system: Trichophyton mentagrophytes 445; assay: as above; type: cell-based; details: read-out: MIC (IC50) TM
Candida glabrata 20/I = assay: as above; type: cell-based; details: Nakaseomyces glabratus, read-out: MIC (IC80) CG
Absidia corymbifera 272 = assay: as above; type: cell-based; details: read-out: MIC (IC50) AC
[7] = system: Aspergillus fumigatus 231; assay: as above; type: cell-based; details: read-out: MIC (IC50) AF

CCNC(=S)NN=Cc1ccc2ccccc2n1 [Compound 4c]
log k [1]: 0.6892

S=C(NN=Cc1ccc2ccccc2n1)Nc1ccccc1 [Compound 4d]
log k [1]: 0.7553

CCNC(=S)NN=Cc1ccc2cccc(O)c2n1 [Compound 4g]
log k [1]: 0.6810

CN(C)C(=O)Nc1ccc(Cl)c(Cl)c1 [DCMU, 3-(3,4-dichlorophenyl)-1,1-dimethylurea, reference compound]
IC50 [2]: ~1.9 µM and 1.9 µM

COc1cccc2c1C(=O)c1c(O)c3c(c(O)c1C2=O)C[C@@](O)(C(=O)CO)C[C@@H]3O[C@H]1C[C@H](N)[C@H](O)[C@H](C)O1 [DXR, doxorubicin, reference compound]
IC50 [3]: 10 ± 1.1 µM

OC(Cn1cncn1)(Cn1cncn1)c1ccc(F)cc1F [FLU, Fluconazole, reference compound]
MIC (Candida krusei ATCC 6258; ATCC6258, 24 h): 3.91 µM (≈ 1.2 µg/mL)
MIC (Candida krusei ATCC 6258; ATCC6258, 48 h): 15.6 µM (≈ 4.78 µg/mL)
MIC (Candida tropicalis 156; Candida tropicalis, 156, 24 h): 0.12 µM (≈ 0.0368 µg/mL)
MIC (Candida tropicalis 156; Candida tropicalis, 156, 48 h): > 125 µM
MIC ([4]; ATCC44859, 24 h): 0.06 µM (≈ 0.0184 µg/mL)
MIC ([4]; ATCC44859, 48 h): 0.12 µM (≈ 0.0368 µg/mL)
MIC ([5]; Trichosporon beigelii, 1188, 24 h): 0.24 µM (≈ 0.0735 µg/mL)
MIC ([5]; Trichosporon beigelii, 1188, 48 h): 0.48 µM (≈ 0.147 µg/mL)
IC50 ([6]; Trichophyton mentagrophytes, 445, 72 h): 1.95 µM
IC50 ([6]; Trichophyton mentagrophytes, 445, 120 h): 3.91 µM
MIC (Candida glabrata 20/I; 24 h): 0.98 µM (≈ 0.3 µg/mL)
MIC (Candida glabrata 20/I; 48 h): 3.91 µM (≈ 1.2 µg/mL)
IC50 (Absidia corymbifera 272; Lichtheimia corymbifera, 272, 24 h): > 125 µM
IC50 (Absidia corymbifera 272; Lichtheimia corymbifera, 272, 48 h): > 125 µM
IC50 ([7]; Aspergillus fumigatus, 231, 24 h): > 125 µM
IC50 ([7]; Aspergillus fumigatus, 231, 48 h): > 125 µM
